In patent US6395261B1, “Walnut seed meal extract” (Gattefosse S.A., priority 1998, dated 2002):

Key:
human skin fibroblasts = experiment: Incorporation of 3H-leucine into protein fractions of fibroblasts in monolayer culture; type: cell-based; conditions: vitamin C reference product
Protocol: After culture of the human skin fibroblasts until the cells become confluent, the culture medium is replaced by a medium containing 2% FCS (Fetal Calf Serum) with:
or vitamin C (reference product).
A batch of untreated control culture is performed in parallel.
After 24 hours of incubation at 37° C., labeled leucine (^3H-leucine) is added to the culture medium and the medium is left to incubate for an additional 48 hours. The following are recovered separately:
on the one hand, the culture medium,
on the other hand, the cell lysate after cellular lysis,
and finally the insoluble fraction (membranes, matrix deposited).
The macromolecules are extracted and then the incorporation of the radioactive precursor of these molecules is measured by liquid scintillation.

elastase = experiment: Elastase activity of cellular extracts of fibroblasts (SANA substrate); type: biochemical, human; conditions: positive control at 2 mM
Protocol: This activity is evaluated on cellular extracts of fibroblasts of human dermis, isolated from the foreskin and cultured according to routine techniques at 37° C., in a humid air-CO2 (95/5%) atmosphere.
The fibroblasts are cultured in DMEM medium supplemented with fetal calf serum (10% FCS) and passaged regularly until a sufficient biomass is obtained.
To carry out the test, the cells are detached from their support by trypsinization. After centrifugation and suitable treatment, the cellular extracts are recovered.
The elastase activity of the cellular extracts was evaluated using Suc-(L-Ala)3-p-nitroanilide (SANA) as substrate. Aliquots of the cellular extract are preincubated at 37° C. in TEA (triethanolamine) buffer at pH=7.8, alone or in buffer containing various concentrations of extracts.
After incubation, a solution of SANA is added to the reaction mixture.
The optical densities at 405 nm are recorded for 1 hour 30 min to 2 hours.
A positive control was introduced into the trial (dichloroisocoumarin at 2 mM).

[1] = macromolecules extracted from the culture medium
[2] = macromolecules extracted from the intracellular medium

| Structure (SMILES) | % Control (human skin fibroblasts; [1]) | Counts/minute (human skin fibroblasts; [1]) | % Control (human skin fibroblasts; [2]) | Counts/minute (human skin fibroblasts; [2]) | Inhibition (elastase; elastase activity) | mU elastase/10^6 cell (elastase) |
| --- | --- | --- | --- | --- | --- | --- |
| O=C1O[C@H]([C@@H](O)CO)C(O)=C1O [Vitamin C, vitamin C] | 132 % Control | 34748 ± 2599 Counts/minute | 96 % Control | 35953 ± 4349 Counts/minute | – | – |
| O=c1oc(Cl)c(Cl)c2ccccc12 [DCI, dichloroisocoumarin] | – | – | – | – | 37 | 0.431 mU elastase/10^6 cell |
